Like-named read-outs stand apart in the source and are kept apart here.
What was measured:
Format in all cases: cell-based
RS4;11-BCL-2 F104L cells = assay: Cell proliferation assay, engineered RS4;11 cells stably overexpressing BCL-2 F104L (MTS, 168 h); conditions: Homo sapiens, read-out: RS4, 11 BCL2-F104L
Experimental: MTS testing kit was purchased from Promega (Madison, Wis., USA). The RPMI-1640, Fetal bovine serum and Penicillin-Streptomycin were purchased from BI (Biological Industries, Beit Haemek, Israel). Puromycin was purchased from Beyotime (shanghai, China). Dimethyl sulfoxide (DMSO) was purchased from Sigma (St. Louis, Mo., USA). RS4;1l-BCL-2 G101V and RS4;11-BCL-2 F104L cells were cultured in RPM11640 supplemented with 1 ug/mL puromycin, 100 U/mL Penicillin-Streptomycin and 10% FBS.
To investigate whether a compound is able to inhibit the activity of BCL-2 mutation in cells, a mechanism-based assay using engineered cell lines stably overexpressing BCL-2 mutation ([…] and […]) was developed. In this assay, the inhibition of BCL-2 mutation was reflected by the inhibition of cell proliferation of RS4;11-BCL-2 G101V and RS4;11-BCL-2 F104L cells. Cells were plated into 96-well plates at optimized cell density (RS4;11-BCL-2 G101V: 5000 cells/well; RS4;11-BCL-2 F104L: 5000 cells/well). Plates were incubated at 37° C., with 5% CO2 for 4 h. Compounds were serially diluted to the final-concentrations of 10000, 3333.3, 1111.1, 370.4, 123.5, 41.2, 13.7, 4.6 and 1.4 nM and added to the plates. Plates were incubated at 37° C., with 5% CO2 for 168 h. 20 μl MTS was added into each well and the plates were incubated at 37° C., with 5% CO2 exactly for 2 h. The absorbance was measured by a microplate reader at 490 nm. IC50 values were calculated using GraphPad Prism 5.0 software.

DoHH2 cells = assay: Cell proliferation assay, DoHH2 cells (MTS, 120 h)
Experimental: MTS testing kit was purchased from Promega (Madison, Wis., USA). The RPMI-1640, Fetal bovine serum and Penicillin-Streptomycin were purchased from BI (Biological Industries, Beit Haemek, Israel). Dimethyl sulfoxide (DMSO) was purchased from Sigma (St. Louis, Mo., USA). DoHH2 (DSMZ catalog #: ACC47) cells were cultured in RPMI-1640 supplemented with Penicillin-Streptomycin and 10% FBS.
To investigate whether a compound is able to inhibit the activity of BCL-2 in cells, a mechanism-based assay using DoHH2 lines was developed. In this assay, the inhibition of BCL-2 was reflected by the inhibition of cell proliferation of DoHH2 cells. Cells were plated into 96-well plates at the optimized cell density of 5000 cells/well. Plates were incubated at 37° C., with 5% CO2 for 4h. Compounds were serially diluted and added to the plates with the final concentrations of 10000, 3333.3, 1111.1, 370.4, 123.5, 41.2, 13.7, 4.6 and 1.5 nM. Plates were incubated at 37° C., with 5% CO2 for 120 h. 20 μl MTS was added into each well and the plates were incubated at 37° C., with 5% CO2 for exactly 2 h. The absorbance was measured by a microplate reader at 490 nm. IC50 was calculated using GraphPad Prism 5.0 software.

Toledo cells = assay: Cell proliferation assay, Toledo cells (MTS, 72 h); conditions: Toledo cells, MTS, read-out: Toledo IC50
How it was run: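 IC50 was derived from 490 nm absorbance after a 2 h MTS step. Before that, compounds at 1.5–10000 nM final (nine points) acted on Toledo cells for 72 h at 37 °C, 5% CO2. Cells were seeded at 30000/well in 10% FBS RPMI-1640 and rested 4 h before dosing.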

CCc1nc2[nH]cc(F)c2cc1Oc1cc(N2CCC3(CC2)CC(N2CCC[C@H]2c2ccccc2C(C)C)C3)ccc1C(=O)NS(=O)(=O)c1cc2c(c([N+](=O)[O-])c1)N[C@@H]([C@H]1CC[C@](C)(O)CC1)CO2 (single isomer, unassigned) [Example D-245, 2-((6-ethyl-3-fluoro-1H-pyrrolo [2,3-b]pyridin-5-yl)oxy)-N-(((S)-3-((1r,4S)-4-hydroxy-4-methylcyclohexyl)-5-nitro-3,4-dihydro-2H-benzo[b][1,4]oxazin-7-yl)sulfonyl)-4-(2-((R or S)-2-(2-isopropylphenyl)pyrrolidin-1-yl)-7-azaspiro[3.5]nonan-7-yl)benzamide]
IC50 (RS4;11-BCL-2 F104L cells): 15 nM

CO[C@@H](C)COc1nc2[nH]cc(F)c2cc1Oc1cc(N2CCC3(CC2)CN([C@H]2CCC[C@H]2c2ccccc2C(C)C)C3)ccc1C(=O)NS(=O)(=O)c1cnc(NC[C@H]2CC[C@](C)(O)CC2)c([N+](=O)[O-])c1 (single isomer, unassigned) [Example A-155a, 2-((3-fluoro-6-((S)-2-methoxypropoxy)-1H-pyrrolo[2,3-b]pyridin-5-yl)oxy)-N-((6-(((1r,4r)-4-hydroxy-4-methylcyclohexyl)methyl)amino)-5-nitropyridin-3-yl)sulfonyl)-4-(2-((1S,2S or 1R,2R)-2-(2-isopropylphenyl)cyclo-pentyl)-2,7-diazaspiro[3.5]nonan-7-yl) benzamide]
IC50 (RS4;11-BCL-2 F104L cells): 27 nM

O=C(NS(=O)(=O)c1cc2c(c([N+](=O)[O-])c1)O[C@H](CN1CCOCC1)CO2)c1ccc(N2CCC3(CC2)CC(N2CCOC[C@H]2c2ccccc2C2CC2)C3)cc1Oc1cnc2[nH]ccc2c1 (single isomer, unassigned) [Example E-41, 2-((1H-pyrrolo [2,3-b]pyridin-5-yl)oxy)-4-(2-((R or S)-3-(2-cyclopropylphenyl)morpholino)-7-azaspiro[3.5]nonan-7-yl)-N-(((R)-2-(morpholinomethyl)-8-nitro-2,3-dihydrobenzo [b][1,4]dioxin-6-yl)sulfonyl) benzamide]
IC50 (DoHH2 cells; Homo sapiens, DOHH-2): ≤ 1 nM | IC50 (Toledo cells; Homo sapiens): 1 nM

CO[C@@H](C)COc1nc2[nH]cc(F)c2cc1Oc1cc(N2CCC3(CC2)CN([C@H]2CCC[C@H]2c2ccccc2C(C)C)C3)ccc1C(=O)NS(=O)(=O)c1cc2c(c([N+](=O)[O-])c1)N[C@@H]([C@H]1CC[C@](C)(O)CC1)CO2 (single isomer, unassigned) [Example D-241a, 2-((3-fluoro-6-((S)-2-methoxypropoxy)-1H-pyrrolo[2,3-b]pyridin-5-yl)oxy)-N-((S)-3-((1r,4S)-4-hydroxy-4-methylcyclohexyl)-5-nitro-3,4-dihydro-2H-benzo[b][1,4]oxazin-7-yl)sulfonyl)-4-(2-((1S,2S or 1R,2R)-2-(2-isopropylphenyl)cyclopentyl)-2,7-diazaspiro[3.5]nonan-7-yl)benzamide]
IC50 (RS4;11-BCL-2 F104L cells): 11 nM

CC(C)c1ccccc1[C@@H]1COCCN1C1CC2(CCN(c3ccc(C(=O)NS(=O)(=O)c4cnc(NC[C@H]5CC[C@](C)(O)CC5)c([N+](=O)[O-])c4)c(Oc4cnc5[nH]cc(F)c5c4)c3)CC2)C1 (single isomer, unassigned) [Example A-128, 2-((3-fluoro-1H-pyrrolo[2,3-b]pyridin-5-yl)oxy)-N-((6-((((1r,4r)-4-hydroxy-4-methylcyclohexyl)methyl)amino)-5-nitropyridin-3-yl)sulfonyl)-4-(2-((R or S)-3-(2-isopropylphenyl)morpholino)-7-azaspiro[3.5]nonan-7-yl) benzamide]
IC50 (DoHH2 cells; Homo sapiens, DOHH-2): ≤ 1 nM | IC50 (Toledo cells; Homo sapiens): 1 nM

CC(C)c1ccccc1C1CN(C)CCN1C1CC2(CCN(c3ccc(C(=O)NS(=O)(=O)c4cnc(NCC5CCC(C)(O)CC5)c([N+](=O)[O-])c4)c(Oc4cnc5[nH]ccc5c4)c3)CC2)C1 (single isomer, unassigned) [Example A-62, (R or S)-2-((1H-pyrrolo[2,3-b]pyridin-5-yl)oxy)-N-((6-(((4-hydroxy-4-methylcyclohexyl)methyl)amino)-5-nitropyridin-3-yl)sulfonyl)-4-(2-(2-(2-isopropylphenyl)-4-methyl-piperazin-1-yl)-7-azaspiro[3.5]nonan-7-yl)benzamide]
IC50 (DoHH2 cells; Homo sapiens, DOHH-2): ≤ 1 nM | IC50 (Toledo cells; Homo sapiens): 1 nM

CO[C@@H](C)COc1nc2[nH]cc(F)c2cc1Oc1cc(N2CCC3(CC2)CC(N2CCC[C@H]2c2ccccc2C(C)C)C3)ccc1C(=O)NS(=O)(=O)c1cc2c(c([N+](=O)[O-])c1)N[C@@H]([C@H]1CC[C@](C)(O)CC1)CO2 (single isomer, unassigned) [Example D-243a, 2-((3-fluoro-6-((S)-2-methoxypropoxy)-1H-pyrrolo[2,3-b]pyridin-5-yl)oxy)-N-(((S)-3-((1r,4S)-4-hydroxy-4-methylcyclohexyl)-5-nitro-3,4-dihydro-2H-benzo[b][1,4]oxazin-7-yl)sulfonyl)-4-(2-((R or S)-2-(2-isopropylphenyl)pyrrolidin-1-yl)-7-azaspiro[3.5]nonan-7-yl) benzamide]
IC50 (RS4;11-BCL-2 F104L cells): 13 nM

CO[C@H](C)COc1nc2[nH]cc(F)c2cc1Oc1cc(N2CCC3(CC2)CC(N2CCC[C@H]2c2ccccc2C(C)C)C3)ccc1C(=O)NS(=O)(=O)c1cc2c(c([N+](=O)[O-])c1)N[C@@H]([C@H]1CC[C@](C)(O)CC1)CO2 (single isomer, unassigned) [Example D-243b, 2-((3-fluoro-6-((R)-2-methoxypropoxy)-1H-pyrrolo[2,3-b]pyridin-5-yl)oxy)-N-(((S)-3-((1r,4S)-4-hydroxy-4-methylcyclohexyl)-5-nitro-3,4-dihydro-2H-benzo[b][1,4]oxazin-7-yl)sulfonyl)-4-(2-((R or S)-2-(2-isopropylphenyl)pyrrolidin-1-yl)-7-azaspiro[3.5]nonan-7-yl) benzamide]
IC50 (RS4;11-BCL-2 F104L cells): 20 nM

CC(C)c1ccccc1[C@@H]1CCCN1C1CC2(CCN(c3ccc(C(=O)NS(=O)(=O)c4cc5c(c([N+](=O)[O-])c4)O[C@@H](CN4CCOCC4)CO5)c(Oc4cnc5[nH]ccc5c4)c3)CC2)C1 (single isomer, unassigned) [Example E-35, 2-((1H-pyrrolo [2,3-b]pyridin-5-yl)oxy)-4-(2-((R or S)-2-(2-isopropylphenyl)pyrrolidin-1-yl)-7-azaspiro[3.5]nonan-7-yl)-N-(((S)-2-(morpholinomethyl)-8-nitro-2,3-dihydrobenzo [b][1,4]dioxin-6-yl)sulfonyl) benzamide]
IC50 (DoHH2 cells; Homo sapiens, DOHH-2): ≤ 1 nM | IC50 (Toledo cells; Homo sapiens): 7 nM

CC(C)c1ccccc1C1COCCN1C1CC2(CCN(c3ccc(C(=O)NS(=O)(=O)c4cnc(NCC5CCC(N=S(C)(C)=O)CC5)c([N+](=O)[O-])c4)c(Oc4cnc5[nH]ccc5c4)c3)CC2)C1 (single isomer, unassigned) [Example A-57, 2-((1H-pyrrolo[2,3-b]pyridin-5-yl)oxy)-N-((6-((((1r,4r)-4-((dimethyl (oxo)-λ^6-sulfanylidene)amino)cyclohexyl)methyl)amrno)-5-nitro-pyridin-3-yl)sulfonyl)-4-(2-((R or S)-3-(2-isopropylphenyl)morpho-lino)-7-azaspiro[3.5]nonan-7-yl) benzamide]
IC50 (DoHH2 cells): ≤ 1 nM | IC50 (Toledo cells): 2 nM

CC(C)c1ccccc1[C@@H]1COCCN1C1CC2(CCN(c3ccc(C(=O)NS(=O)(=O)c4cnc(NC[C@H]5CC[C@](C)(O)CC5)c([N+](=O)[O-])c4)c(Oc4cnc5[nH]cc(Cl)c5c4)c3)CC2)C1 (single isomer, unassigned) [Example A-129, 2-((3-chloro-1H-pyrrolo[2,3-b]pyridin-5-yl)oxy)-N-((6-((((1r,4r)-4-hydroxy-4-methylcyclohexyl)methyl)amino)-5-nitropyridin-3-yl)sulfonyl)-4-(2-((R or S)-3-(2-isopropylphenyl)morpholino)-7-azaspiro[3.5]nonan-7-yl) benzamide]
IC50 (DoHH2 cells; Homo sapiens, DOHH-2): ≤ 1 nM | IC50 (Toledo cells; Homo sapiens): 1 nM
